From patent US20200360349A1, “ADMINISTRATION OF MONOBACTAM FOR THE TREATMENT OF URINARY TRACT INFECTION” (Novartis AG, priority 2017, published 2020)

Legend:
[1] = Safety and tolerability of single doses of LYS228; format: in vivo, human; details: following single doses up to 6000 mg
From the text: and including any ionic species thereof is a compound with antibacterial activity (See PCT Application No. PCT/US2015/022011, which is incorporated herein by reference). […] LYS228 kills bacteria by inhibiting cell wall synthesis through covalent modification of the active site serine of penicillin binding protein 3 (PBP3). Aztreonam is the only monobactam approved for clinical use (Tunkel and Scheld Infect Control Hosp Epidemiol p. 486-94, 1990). MBL-expressing Enterobacteriaceae can inactivate all classes of (3-lactam drugs, except monocyclic (3-lactams like the monobactams. MBLs are frequently co-expressed with SBLs. The prevalence of strains expressing the New Delhi metal-β-lactamase-1 (NDM-1) is as high as 12% in clinical isolates from patients with invasive infections in India (Biedenbach et al Antimicrob. Agents Chemother. p. 826-30, 2015, Rahman et al India. Int. J. Antimicrob. Agents p. 30-7, 2014); infections caused by strains expressing NDM-1 and other MBLs have been detected globally, including in Europe, the United States, China, and Japan (Kazmierczak et al Antimicrob. Agents Chemother. p. 1067-78, 2016). […]

[2] = system: Gram-negative bacteria, including strains that show resistance to other monobactams; details: cited from earlier work

## Nc1nc(/C(=N/OC2(C(=O)O)CC2)C(=O)N[C@@H]2C(=O)N(S(=O)(=O)O)[C@@H]2CN2CCOC2=O)cs1 [LYS228, 1-(((Z)-(1-(2-aminothiazol-4-yl)-2-oxo-2-(((3S,4R)-2-oxo-4-((2-oxooxazolidin-3-yl)methyl)-1-sulfoazetidin-3-yl)amino)ethylidene)amino)oxy)cyclopropanecarboxylic acid]
[1]
  safety and tolerability: safe and well-tolerated
[2]
  activity against Gram-negative bacteria: strong activity
